Measurements taken from patent publication US9796711B2, “Substituted pyrazolo[3,4-b]pyridin-6-carboxylic acids and method of use” (AbbVie S.àr.l., priority 2015, dated 2017).

Columns and labels:
ΔF508-CFTR [1] = molecular target: T1, ΔF508-CFTR (Homo sapiens, UniProt P13569, DEL508-508); test: CFTR cell surface levels using HRP-tagged ΔF508-CFTR expressing CFBE cells, intrinsic corrector capacity; format: cell-based; conditions: HRP-tagged ΔF508-CFTR expressing CFBE cells, intrinsic corrector capacity (no co-corrector), 33° C., 20 hours; for EC50: read-out: EC50
T1 construct: host or cells: CFBE41o-, doxycycline-inducible
In short: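 Here the cells express ΔF508-CFTR with horseradish peroxidase inserted in extracellular loop 4, so only rescued channel at the surface gives luminescent signal. Compounds act on their own, 20 h at the reduced temperature of 33 °C; values are percent activity relative to DMSO and a 3 μM corrector.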

ΔF508-CFTR [2] = molecular target: T1, ΔF508-CFTR; test: CFTR cell surface levels using HRP-tagged ΔF508-CFTR expressing CFBE cells, in the presence of a co-corrector; format: cell-based; conditions: HRP-tagged ΔF508-CFTR expressing CFBE cells, in the presence of 3 μM co-corrector; for EC50: read-out: EC50
In short: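 Cells were seeded with 0.5 μg/mL doxycycline and held 68 h at 37 °C. Test compounds plus 3 μM co-corrector (final 0.1% DMSO) were then added for 20 h at 33 °C. Washed cells received HRP substrate, and luminescence was normalized between DMSO and 3 μM co-corrector controls.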

T1 sequence (P13569 with tags, fused parts or gaps DEL508-508): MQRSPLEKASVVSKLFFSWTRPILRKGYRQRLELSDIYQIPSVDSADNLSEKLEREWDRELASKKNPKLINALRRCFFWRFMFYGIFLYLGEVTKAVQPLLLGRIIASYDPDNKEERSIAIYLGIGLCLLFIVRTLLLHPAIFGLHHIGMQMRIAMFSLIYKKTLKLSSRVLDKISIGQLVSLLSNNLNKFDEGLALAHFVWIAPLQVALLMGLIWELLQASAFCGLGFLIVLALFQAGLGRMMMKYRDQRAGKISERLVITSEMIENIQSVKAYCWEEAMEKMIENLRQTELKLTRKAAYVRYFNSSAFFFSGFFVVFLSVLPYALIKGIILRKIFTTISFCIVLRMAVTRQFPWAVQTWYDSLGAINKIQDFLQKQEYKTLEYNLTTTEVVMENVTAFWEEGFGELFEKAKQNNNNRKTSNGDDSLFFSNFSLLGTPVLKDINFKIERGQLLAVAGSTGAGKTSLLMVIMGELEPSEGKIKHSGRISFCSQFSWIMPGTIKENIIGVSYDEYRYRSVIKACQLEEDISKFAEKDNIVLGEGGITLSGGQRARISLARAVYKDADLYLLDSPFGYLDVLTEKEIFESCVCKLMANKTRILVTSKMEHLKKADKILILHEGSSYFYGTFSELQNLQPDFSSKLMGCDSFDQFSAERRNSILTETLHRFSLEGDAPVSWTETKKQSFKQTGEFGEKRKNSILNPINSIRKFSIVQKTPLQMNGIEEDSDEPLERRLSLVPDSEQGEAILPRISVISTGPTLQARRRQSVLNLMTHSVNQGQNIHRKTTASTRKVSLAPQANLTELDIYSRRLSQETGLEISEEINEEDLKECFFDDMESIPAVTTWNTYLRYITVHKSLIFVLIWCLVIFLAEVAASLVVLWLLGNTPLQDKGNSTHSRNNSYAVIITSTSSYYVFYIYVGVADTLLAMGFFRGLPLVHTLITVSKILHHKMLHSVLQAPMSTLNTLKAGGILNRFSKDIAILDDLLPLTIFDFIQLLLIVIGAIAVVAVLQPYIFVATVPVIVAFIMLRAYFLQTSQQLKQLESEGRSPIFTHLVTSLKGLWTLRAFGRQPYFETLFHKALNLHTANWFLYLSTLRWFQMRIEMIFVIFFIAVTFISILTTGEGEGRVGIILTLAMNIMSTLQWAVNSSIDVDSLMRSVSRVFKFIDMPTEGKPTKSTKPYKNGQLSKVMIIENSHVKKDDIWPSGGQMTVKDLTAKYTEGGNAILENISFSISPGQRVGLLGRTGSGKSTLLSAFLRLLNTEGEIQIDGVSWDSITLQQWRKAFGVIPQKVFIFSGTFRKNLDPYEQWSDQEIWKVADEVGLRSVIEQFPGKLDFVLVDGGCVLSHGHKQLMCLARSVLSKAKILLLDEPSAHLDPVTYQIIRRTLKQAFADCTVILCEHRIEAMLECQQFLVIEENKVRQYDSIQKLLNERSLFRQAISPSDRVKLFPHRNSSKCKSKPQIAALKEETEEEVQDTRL

Structure (SMILES)	% Activation (ΔF508-CFTR [1])	EC50 (ΔF508-CFTR [1])	% Activation (ΔF508-CFTR [2])	EC50 (ΔF508-CFTR [2])
CC(C)c1nn(C2CCCCC2)c2nc(C(=O)O)cc(OCC3CCOCC3)c12 [compound 603, 1-cyclohexyl-4-[(oxan-4-yl)methoxy]-3-(propan-2-yl)-1H-pyrazolo[3,4-b]pyridine-6-carboxylic acid]	92.66%	1760 nM	273.3%	870 nM
CC(C)c1nn(-c2ccc(F)cc2)c2nc(C(=O)O)cc(OCCC3CCOCC3)c12 [compound 604, 1-(4-fluorophenyl)-4-[2-(oxan-4-yl)ethoxy]-3-(propan-2-yl)-1H-pyrazolo[3,4-b]pyridine-6-carboxylic acid]	142.9%	738 nM	292.2%	256 nM
COC(C)(C)C1CCN(c2cc(C(=O)O)nc3c2c(C2CCC2)nn3-c2ccccc2)CC1 [compound 605, 3-cyclobutyl-4-[4-(2-methoxypropan-2-yl)piperidin-1-yl]-1-phenyl-1H-pyrazolo[3,4-b]pyridine-6-carboxylic acid]	292.8%	82.1 nM	531.3%	43.6 nM
CN(C)CCCCOc1cc(C(=O)O)nc2c1c(C1CCC1)nn2-c1ccccc1 [compound 611, 3-cyclobutyl-4-[4-(dimethylamino)butoxy]-1-phenyl-1H-pyrazolo[3,4-b]pyridine-6-carboxylic acid]	104.6%	3330 nM	278.1%	2930 nM
CC(=O)N1CCC(Oc2cc(C(=O)O)nc3c2c(C2CCC2)nn3-c2ccccc2)CC1 [compound 612, 4-[(1-acetylpiperidin-4-yl)oxy]-3-cyclobutyl-1-phenyl-1H-pyrazolo[3,4-b]pyridine-6-carboxylic acid]	109.5%	3330 nM	266.9%	1180 nM
O=C(O)c1cc(OCC(F)(F)F)c2c(C3CCC3)nn(-c3ccccc3)c2n1 [compound 613, 3-cyclobutyl-1-phenyl-4-(2,2,2-trifluoroethoxy)-1H-pyrazolo[3,4-b]pyridine-6-carboxylic acid]	99.78%	1600 nM	292%	739 nM
CN(C)CCOCCOc1cc(C(=O)O)nc2c1c(C1CCC1)nn2-c1ccccc1 [compound 614, 3-cyclobutyl-4-{2-[2-(dimethylamino)ethoxy]ethoxy}-1-phenyl-1H-pyrazolo[3,4-b]pyridine-6-carboxylic acid]	32.02%	3330 nM	176.9%	3330 nM
C[C@@H](CN(C)C)Oc1cc(C(=O)O)nc2c1c(C1CCC1)nn2-c1ccccc1 [compound 615, 3-cyclobutyl-4-{[(2S)-1-(dimethylamino)propan-2-yl]oxy}-1-phenyl-1H-pyrazolo[3,4-b]pyridine-6-carboxylic acid]	44.6%	3330 nM	216.65%	2330 nM
O=C(O)c1cc(OCC2CCC(F)(F)CC2)c2c(C3CCC3)nn(-c3ccccc3)c2n1 [compound 616, 3-cyclobutyl-4-[(4,4-difluorocyclohexyl)methoxy]-1-phenyl-1H-pyrazolo[3,4-b]pyridine-6-carboxylic acid]	144.2%	116 nM	389.95%	83.3 nM
O=C1CC[C@H](COc2cc(C(=O)O)nc3c2c(C2CCC2)nn3-c2ccccc2)N1 [compound 617, 3-cyclobutyl-4-{[(2R)-5-oxopyrrolidin-2-yl]methoxy}-1-phenyl-1H-pyrazolo[3,4-b]pyridine-6-carboxylic acid]	7.139%	> 10000 nM	127.3%	> 10000 nM
CC1(C)OC[C@@H](COc2cc(C(=O)O)nc3c2c(C2CCC2)nn3-c2ccccc2)O1 [compound 618, 3-cyclobutyl-4-{[(4R)-2,2-dimethyl-1,3-dioxolan-4-yl]methoxy}-1-phenyl-1H-pyrazolo[3,4-b]pyridine-6-carboxylic acid]	105.9%	547 nM	315.25%	351 nM
O=C1CC[C@H](Oc2cc(C(=O)O)nc3c2c(C2CCC2)nn3-c2ccccc2)CN1 [compound 619, 3-cyclobutyl-4-{[(3S)-6-oxopiperidin-3-yl]oxy}-1-phenyl-1H-pyrazolo[3,4-b]pyridine-6-carboxylic acid]	7.484%	> 10000 nM	134.1%	> 10000 nM
CCC1(COc2cc(C(=O)O)nc3c2c(C2CCC2)nn3-c2ccccc2)COCOC1 [compound 620, 3-cyclobutyl-4-[(5-ethyl-1,3-dioxan-5-yl)methoxy]-1-phenyl-1H-pyrazolo[3,4-b]pyridine-6-carboxylic acid]	147.4%	250 nM	323.25%	170 nM
CN1[C@@H]2CC[C@H]1C[C@@H](Oc1cc(C(=O)O)nc3c1c(C1CCC1)nn3-c1ccccc1)C2 [compound 621, 3-cyclobutyl-4-{[(3-endo)-8-methyl-8-azabicyclo[3.2.1]octan-3-yl]oxy}-1-phenyl-1H-pyrazolo[3,4-b]pyridine-6-carboxylic acid]	89.46%	3330 nM	294.75%	3140 nM
CC1(COc2cc(C(=O)O)nc3c2c(C2CCC2)nn3-c2ccccc2)COCOC1 [compound 622, 3-cyclobutyl-4-[(5-methyl-1,3-dioxan-5-yl)methoxy]-1-phenyl-1H-pyrazolo[3,4-b]pyridine-6-carboxylic acid]	124.5%	165 nM	275.2%	67.5 nM
O=C(O)c1cc(OCCN2CCC3(CC2)OCCO3)c2c(C3CCC3)nn(-c3ccccc3)c2n1 [compound 623, 3-cyclobutyl-4-[2-(1,4-dioxa-8-azaspiro[4.5]decan-8-yl)ethoxy]-1-phenyl-1H-pyrazolo[3,4-b]pyridine-6-carboxylic acid]	106.8%	1160 nM	308.3%	501 nM
CCN(CC)CCCOc1cc(C(=O)O)nc2c1c(C1CCC1)nn2-c1ccccc1 [compound 624, 3-cyclobutyl-4-[3-(diethylamino)propoxy]-1-phenyl-1H-pyrazolo[3,4-b]pyridine-6-carboxylic acid]	98.14%	3330 nM	281.85%	2210 nM
O=C(O)c1cc(OCCN(C2CCCCC2)C2COC2)c2c(C3CCC3)nn(-c3ccccc3)c2n1 [compound 625, 3-cyclobutyl-4-{2-[cyclohexyl(oxetan-3-yl)amino]ethoxy}-1-phenyl-1H-pyrazolo[3,4-b]pyridine-6-carboxylic acid]	135.2%	300 nM	326.75%	126 nM
CS(=O)(=O)N1CCC(F)(COc2cc(C(=O)O)nc3c2c(C2CCC2)nn3-c2ccccc2)CC1 [compound 626, 3-cyclobutyl-4-{[4-fluoro-1-(methanesulfonyl)piperidin-4-yl]methoxy}-1-phenyl-1H-pyrazolo[3,4-b]pyridine-6-carboxylic acid]	223.1%	2710 nM	398.15%	1010 nM
CS(=O)(=O)C1(COc2cc(C(=O)O)nc3c2c(C2CCC2)nn3-c2ccccc2)CCOCC1 [compound 627, 3-cyclobutyl-4-{[4-(methanesulfonyl)oxan-4-yl]methoxy}-1-phenyl-1H-pyrazolo[3,4-b]pyridine-6-carboxylic acid]	9.221%	> 10000 nM	126.25%	> 10000 nM
O=C(O)c1cc(OCCN2CCCC2)c2c(C3CCC3)nn(-c3ccccc3)c2n1 [compound 628, 3-cyclobutyl-1-phenyl-4-[2-(pyrrolidin-1-yl)ethoxy]-1H-pyrazolo[3,4-b]pyridine-6-carboxylic acid]	67.69%	3180 nM	217.7%	3330 nM
CC(C)(COc1cc(C(=O)O)nc2c1c(C1CCC1)nn2-c1ccccc1)S(C)(=O)=O [compound 629, 3-cyclobutyl-4-[2-(methanesulfonyl)-2-methylpropoxy]-1-phenyl-1H-pyrazolo[3,4-b]pyridine-6-carboxylic acid]	94.42%	3330 nM	252.2%	2160 nM
CC1(COc2cc(C(=O)O)nc3c2c(C2CCC2)nn3-c2ccccc2)CC1 [compound 630, 3-cyclobutyl-4-[(1-methylcyclopropyl)methoxy]-1-phenyl-1H-pyrazolo[3,4-b]pyridine-6-carboxylic acid]	136.15%	308 nM	323.7%	254 nM
CC1(CCOc2cc(C(=O)O)nc3c2c(C2CCC2)nn3-c2ccccc2)CC1 [compound 631, 3-cyclobutyl-4-[2-(1-methylcyclopropyl)ethoxy]-1-phenyl-1H-pyrazolo[3,4-b]pyridine-6-carboxylic acid]	99.143%	346 nM	283%	177 nM
